Bridge positions count the residues as written; N and C are the ends. Ends that are not written are not given here.
Test system: premature newborn rabbits
Test: Surfactant preparations in ventilated premature newborn rabbits without PEEP (model of RDS): lung gas volumes and tidal volumes
Type: in vivo, rabbit
Settings: no PEEP; for lung gas volumes (median): reconstituted surfactant, 2% w/w of each named peptide in DPPC:POPG 68:31 w/w, 80 mg/ml, 2.5 ml/kg at birth, FIG. 3
Description: The surfactant preparations were assayed in premature newborn rabbits, obtained by hysterectomy at the gestational age of 27 days. The experiments were performed without applying a positive end expiratory pressure (PEEP). As the SP-C analog, the polypeptide referred to as SP-C33 was used which was prepared according to Example 1. As the analog of the protein SP-B, oxidized Mini-B (ox Mini-B) was used which was prepared according to Example 2.
The animals were treated at birth with reconstituted surfactant preparations containing, as lipid carrier, the phospholipid mixture DPPC:POPG in the ratio 68:31 w/w. The phospholipids were mixed with 2 or 4% w/w SPC-33, 2% w/w ox Mini-B, or 2% w/w SPC-33 plus 2% w/w ox Mini-B. Animals receiving the same dose of Curosurf® served as positive controls, and non-treated littermates served as negative controls. All surfactant preparations were administered at a concentration of 80 mg/ml and at a standard dose of 2.5 ml/kg.
The immature newborn rabbits were ventilated in parallel with a standardized sequence of peak insufflation pressures. To open up the lungs, pressure was first set at 35 cmH2O for 1 minute. After this recruitment manoeuvre, pressure was lowered to 25 cmH2O for 15 minutes and further on to 20 and 15 cm H2O. Finally, the pressure was raised again to 25 cmH2O for 5 minutes, after which the lungs were ventilated for additional 5 minutes with nitrogen and then excised for gas volume measurements. Both lung gas volumes and tidal volumes expressed as ml/kg were measured, and the results, given as median values, are reported in FIGS. 3 and 4, respectively.

CWLCRALIKRIQAMIPKGGRMLPQLVCRLVLRCS (disulfide 1-33, 4-27) [ox Mini-B, SP-B analog]
lung gas volumes (median): about 2 ml/kg

IPSSPVHLKRLKLLLLLLLLILLLILGALLMGL [SP-C33]
lung gas volumes, effect of increasing SP-C33 content (SP-C33 content raised from 2 to 4% w/w in DPPC:POPG 68:31): did not increase lung gas volumes | lung gas volumes (median): about 4 ml/kg

Source: patent publication US8183210B2, “Reconstituted surfactants having improved properties” (Chiesi Farmaceutici S.p.A., priority 2006, dated 2012)
